Experimental data from patent US20160206633A1, “dhS1P AND USE OF SAME AS AN ANTICANCER THERAPEUTIC AND IMMUNOMODULATOR” (Penn State Research Foundation, Inc., priority 2013, published 2016).

Tests used:
[1] = test system: sphingolipids in tumor and serum; assay: Lipidomics (LC-MS3) of sphingolipids in tumors and serum of treated tumor-bearing mice; assay type: in vivo; conditions: generally
Method: To explore how PhotoImmunoNanoTherapy could be regulating the immune system, an analysis of the “sphingolipidome” was studied in tumors and serum collected from treated tumor-bearing mice. As PhotoImmunoNanoTherapy modulated the immune system, and was efficacious in both athymic nude mice and BALB/cJ mice, in depth “sphingolipidomic” studies were performed in athymic nude mice bearing MDA-MB-231 tumors to focus more precisely on mediation of T-cell-independent immunity as well as BALB/cJ mice bearing 410.4 tumors (FIG. 5A-F). […] Intriguingly, an increase in tumor S1P was observed as a function of PhotoImmunoNanoTherapy in both models (FIG. 5D), as well as an increase in the precursor sphingosine in the athymic nude mouse model (MDA-MB-231 tumor) (FIG. 5C). […] Of particular interest, the mass levels of phosphorylated sphingolipid species were much higher in serum than in tumor tissue possibly reflective of a release of phosphorylated sphingolipids in response to PhotoImmunoNanoTherapy. Intriguingly, the increase in the amount of dhS1P was more dramatic than the increase in S1P. In the MDA-MB-231, BxPC-3, and SAOS-2-LM7 models there were a 65%, 79%, and 43% increase in dhS1P, respectively, and these compared with respective increases in S1P of only 29%, 27%, and 10%. […]

[2] = test system: murine Panc-02 pancreatic cancer cells; assay: Injection of BSA-conjugated sphingolipids into mice with subcutaneous Panc-02 tumors; assay type: in vivo
From the text: (A) Splenic IMCs (Gr-1+CD11b+, also defined as MDSC: myeloid-derived suppressor cells) were isolated from subcutaneous human MDA-MB-231 breast tumor-bearing athymic nude mice, treated with or without dhS1P (to induce the expansion of CD19+CD45R B220+ cells: B-cells), and adoptively transferred into subcutaneous human MDA-MB-231 breast tumor-bearing athymic nude mice before monitoring tumor growth. ANOVA, **p<0.05 compared to PBS control, n≧6. (B) Splenic IMCs were isolated from orthotopic human BxPC-3 pancreatic tumor-bearing athymic nude mice, treated with or without dhS1P, and adoptively transferred into orthotopic human BxPC-3 pancreatic tumor-bearing athymic nude mice before monitoring survival. Logrank test, *p<0.05, n=5. (C) Tumor growth following BSA (lipid carrier control), sphingosine-1-phosphate (S1P), or dhS1P injection every other day, was monitored in C57BL/6J mice engrafted with subcutaneous murine Panc-02 pancreatic cancer cells. ANOVA, **p<0.05 compared to BSA control, n≧6.
Orthotopic pancreatic cancer and subcutaneous breast cancer tumors were established in athymic nude, NOD.CB17-Prkdcscid/J, BALB/cJ, or C57BL/6J mice as previously described (8, 9), with minor modifications. All cell lines used in animal and cellular studies, prior to any modification, were originally obtained from the American Type Culture Collection (Manassas, Va.). For orthotopic BxPC-3-GFP human pancreatic cancer xenografts, 4-6 week old female athymic mice were fully anesthetized with a mixture of ketamine-HCl (129 mg/kg) and xylazine (4 mg/kg) injected intramuscularly. A small incision was made in the left flank, the peritoneum was dissected and the pancreas exposed. Using a 27-gauge needle, 2.5×10^6 cells, prepared in 0.1 mL of Hank's balanced salt solution, were injected into the pancreas. For experimental lung-metastatic osteosarcoma xenografts, 4-6 week old female athymic nude mice were tail vein-injected with 2.5×10^6 human SAOS-2-LM7 cells. […] Tumor size was measured by caliper measurement. […]

Structure (SMILES): CCCCCCCCCCCCCCC[C@@H](O)[C@@H](N)COP(=O)(O)O [dhS1P, dihydrosphingosine-1-phosphate]
- Serum levels measured in the experiments [1]: around 0.005 mg/kg
- Life expectancy ([2]; direct injections into pancreatic tumor-bearing mice): improved
- Tumor growth ([2]; subcutaneous Panc-02 in C57BL/6J mice, injection every other day, 0.1 mL of 100 μM, BSA carrier): therapeutic effect
